# Reference: PubChem BioAssay AID1745861
# Molecular target: Solute carrier family 22 member 3 (Homo sapiens) (UniProt O75751)
# Test: SLC22A3 transporter inhibition of MPP+ response – HEK293 JumpIn overexpressing cells, impedance, dose response (AID 1745861)
# Details: HEK293 JumpIn OCT3, MPP+ uptake, impedance (xCELLigence)
# Solute carrier family 22 member 3 (Homo sapiens), sequence (O75751 whole entry, looked up): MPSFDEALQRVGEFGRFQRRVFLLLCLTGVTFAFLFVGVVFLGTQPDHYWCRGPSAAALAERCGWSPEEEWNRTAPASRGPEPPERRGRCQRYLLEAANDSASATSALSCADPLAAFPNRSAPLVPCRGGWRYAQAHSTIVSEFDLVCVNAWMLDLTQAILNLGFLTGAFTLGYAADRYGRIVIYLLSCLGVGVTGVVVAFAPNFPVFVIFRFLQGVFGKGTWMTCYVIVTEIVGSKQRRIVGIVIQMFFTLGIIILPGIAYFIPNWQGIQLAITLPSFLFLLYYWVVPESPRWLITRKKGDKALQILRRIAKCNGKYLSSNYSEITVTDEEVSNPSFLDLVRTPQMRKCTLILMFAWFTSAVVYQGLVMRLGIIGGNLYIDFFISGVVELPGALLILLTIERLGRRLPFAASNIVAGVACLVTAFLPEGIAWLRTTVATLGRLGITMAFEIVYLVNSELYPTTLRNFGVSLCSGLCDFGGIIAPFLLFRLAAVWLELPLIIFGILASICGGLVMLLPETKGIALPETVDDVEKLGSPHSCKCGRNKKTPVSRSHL
row,Structure (SMILES),IC50 [µM]
1,CCN1/C(=C/c2ccc3ccccc3[n+]2CC)C=Cc2ccccc21,0.4
2,C=CC(=O)N1CCC[C@@H](n2nc(-c3ccc(Oc4ccccc4)cc3)c3c(N)ncnc32)C1,7.9
3,C[n+]1ccc(-c2ccccc2)cc1,199

# Continued by falling IC50, values first:
row,IC50 [µM],Structure (SMILES)
1,1.6,C[C@]12C[C@H](O)[C@H]3[C@@H](CCC4=CC(=O)CC[C@@]43C)[C@@H]1CC[C@@H]2C(=O)CO
2,0.5,Cc1cn(-c2cc(NC(=O)c3ccc(C)c(Nc4nccc(-c5cccnc5)n4)c3)cc(C(F)(F)F)c2)cn1
